For orientation: AC50 means the concentration at which the activity in the assay is half-maximal. In general, IC50 refers to the point on the concentration scale where inhibition reaches its midpoint.

Several values for one entry are separate records, joined by “and”; a condition that tells them apart may be missing. Equal entries are not always repeated. Structures can show the parent of a compound that is named as a salt. Where two headings read alike, the source gives them in different places.

The record followed here is article PMC8041433 (Environmental Health Perspectives, 2021).

For assay [1], the target named is T1, recombinant human AChE (Homo sapiens, UniProt P22303). As to the kind of experiment: biochemical. It counts as biochemical. The note with it: for AC50: AC50 (uM).
T1 sequence (P22303 32-614): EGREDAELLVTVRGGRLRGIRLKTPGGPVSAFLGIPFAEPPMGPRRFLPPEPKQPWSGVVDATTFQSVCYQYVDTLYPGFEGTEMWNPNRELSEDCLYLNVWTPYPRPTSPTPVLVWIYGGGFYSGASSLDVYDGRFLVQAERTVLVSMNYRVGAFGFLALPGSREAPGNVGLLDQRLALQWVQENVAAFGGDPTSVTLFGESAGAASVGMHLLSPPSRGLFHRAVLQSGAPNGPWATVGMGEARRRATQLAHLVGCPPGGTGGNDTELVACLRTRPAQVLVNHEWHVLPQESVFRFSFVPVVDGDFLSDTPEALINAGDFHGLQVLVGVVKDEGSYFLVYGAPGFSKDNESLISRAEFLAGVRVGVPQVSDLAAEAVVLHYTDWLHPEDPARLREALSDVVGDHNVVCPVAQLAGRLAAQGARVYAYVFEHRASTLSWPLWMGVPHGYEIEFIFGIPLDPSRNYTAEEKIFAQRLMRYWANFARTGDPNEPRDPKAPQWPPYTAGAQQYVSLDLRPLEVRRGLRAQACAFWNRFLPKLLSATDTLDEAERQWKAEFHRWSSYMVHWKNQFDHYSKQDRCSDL
The target in assay [2] is AChE in neural stem cell spheroids (Homo sapiens, UniProt P22303). The experiment in a line: cell-based. The note with it: potency (IC50).
Sequence of AChE in neural stem cell spheroids (P22303 32-614): as above
Assay [3] deals with AChE in SH-SY5Y cells (Homo sapiens, UniProt P22303). The experiment in a line: cell-based.
Sequence of AChE in SH-SY5Y cells (P22303 32-614): as above
The target in assay [4] is T1, recombinant human AChE. The experiment in a line: biochemical.
Assay [5] has as its target T1, recombinant human AChE.
The target of assay [6] is AChE in neural stem cells (Homo sapiens, UniProt P22303). The experiment in a line: cell-based.
Sequence of AChE in neural stem cells (P22303 32-614): as above
The target in assay [7] is AChE in SH-SY5Y spheroids (Homo sapiens, UniProt P22303). The experiment in a line: cell-based. The note with it: potency (IC50).
Sequence of AChE in SH-SY5Y spheroids (P22303 32-614): as above
The target in assay [8] is T1, recombinant human AChE. The experiment in a line: biochemical. This is another data set of the same source.
Assay [9] concerns the target T1, recombinant human AChE. The experiment in a line: biochemical. This is another data set of the same source.
Where [10] appears, read: Neural stem cell spheroid (24 h).
Where [11] appears, read: Neural stem cell spheroid (48 h).
[12] abbreviates: potency (IC50), SH-SY5Y cells monolayer.
[13] abbreviates: potency (IC50), Enzyme with microsomes.
Throughout, for IR or R: key: Reversible (R); Irreversible (IR); ND, not detected in enzyme-based AChE inhibition assay from current study.

Turning to `[H]/N=C(\N/C(=N/[H])NCCCCCCNC(=N)NC(=N)Nc1ccc(Cl)cc1)Nc1ccc(Cl)cc1` [Chlorhexidine diacetate, reference compound], in [1], the “IR or R” value was “R”. Further, in assay [1], the AC50 turned out to be 78.5 µM. Also, the IC50 in assay [2] (setting [10]) is 8.31 µM; in assay [2] (setting [11]), 9.21 µM; in [3] (IC50 (uM)) it was 56.1 µM and 70.6 µM; in assay [3] (setting [12]), 70.9 µM; in [6], 32.5 µM; in [7] (SH-SY5Y spheroids (24 h)) it was 36.1 µM. Further, the IC50 in assay [7] (SH-SY5Y spheroids (48 h)) turned out to be 41 µM; in assay [8] (IC50 (uM)) it was 50 µM; in assay [8] (potency (IC50), Enzyme), 54.6 µM. Also, the “CC-v2 (curve classes)” value is -2.1 in [3], 4 in assay [5] and -2.1 in assay [8]. Moreover, the “potency (IC50), Enzyme-based assay with heat-inactivated microsomes” value (“potency (IC50), Enzyme-based assay” below) in [4] is “Inactive”. Besides, the Efficacy in assay [5] was 0; in assay [8], -106.259. The “potency (IC50), Enzyme with microsomes” value in [5] is on record as “Inactive”.
For the compound `O=C(O)CC[N+](=O)[O-]` [3-Nitropropionic acid], the half-inhibitory concentration (IC50) was 71 µM in assay [9] (IC50 (uM)); 8.94 µM and 11.2 µM and 2.24 µM in assay [3] (IC50 (uM)); 28.3 µM in assay [8] (IC50 (uM)). Also, the results for the “CC-v2 (curve classes)” value in [5] and in assay [8] were -2.2 and -2.1, respectively. Further, the values for the Efficacy in [5] and in [8] were -41.028 and -85.687, respectively.
In the case of `CCOP(=S)(OCC)SCSC(C)(C)C` [Terbufos], the half-maximal inhibitory concentration (IC50) in assay [9] (IC50 (uM)) is 56.4 µM and 40.2 µM; in assay [9] (setting [13]), 4.27 µM; in assay [2] (setting [10]), 1.83 µM; in assay [2] (setting [11]), 2.75 µM; in assay [3] (IC50 (uM)), 89.4 µM; in assay [6], 2.31 µM. Besides, the IC50 in assay [7] (SH-SY5Y spheroids (24 h)) stood at 2.19 µM; in assay [7] (SH-SY5Y spheroids (48 h)), 35.4 µM. Besides, in assay [3], the “potency (IC50), SH-SY5Y cells monolayer” value is recorded as “Inactive”. Also, in [4], the “potency (IC50), Enzyme-based assay” value is on record as “Inactive”. In addition, the “CC-v2 (curve classes)” value is on record as -2.1 in assay [5] and 4 in [8]. Moreover, the “AChE inhibition (result in words)” value in assay [8] is “did not show effects”. For the same compound, in [8], the Efficacy was found to be 0. In assay [8], the “potency (IC50), Enzyme” value was “Inactive”.
For the compound `CNC(=O)Oc1cccc2ccccc12` [carbaryl], the “reversibility of AChE inhibition (result in words)” value in assay [1] is reported as “significant IC50 difference at 60 min”.
Turning to `CCc1ccc(C(=O)C(C)CN2CCCCC2)cc1.Cl` (stereo not drawn) [Eperisone hydrochloride, reference compound], the IC50 was 38.7 µM in assay [9] (setting [13]); 15 µM in assay [2] (setting [10]); 13.3 µM in assay [2] (setting [11]); 15.5 µM in [3] (IC50 (uM)); 25.3 µM in assay [3] (setting [12]); 40.1 ± 2.71 µM in [4]. In addition, the IC50 amounted to 19.3 µM in assay [6] and 27.4 µM in assay [8] (potency (IC50), Enzyme). Further, in assay [1], the “IR or R” value is “R”. Moreover, the concentration at half-maximal activity (AC50) in assay [1] is 10.9 µM (3×) and 21.7 µM and 15.3 µM (2×) and 17.2 µM. Besides, the “CC-v2 (curve classes)” value is -2.1 in assay [3], 4 in [5] and -2.2 in assay [8]. The values for the Efficacy in [5] and in assay [8] were 0 and -46.815, respectively.
`COc1cc2nc(N(C)CCCNC(=O)C3CCCO3)nc(N)c2cc1OC` (stereo not drawn) [Alfuzosin hydrochloride, reference compound]: the concentration at half-maximal activity (AC50) in [1] is 14.7 µM (3×) and 13.1 µM and 7.35 µM and 9.25 µM and 10.4 µM (2×).
On to `CCN(CC)CCNC(=O)c1c(C)[nH]c(/C=C2\C(=O)Nc3ccc(F)cc32)c1C` [Sunitinib malate, reference compound], for which the “IR or R” value in assay [1] was “R”. For the same compound, the “CC-v2 (curve classes)” value was -1.1 in assay [3], -2.2 in assay [5] and -1.1 in assay [8]. Further, the Efficacy in assay [5] was -53.539; in assay [8] it was -78.177.
For the compound `CCOP(=O)(OCC)Oc1nc(Cl)c(Cl)cc1Cl` [Chlorpyrifos oxon, reference compound], the “reversibility of AChE inhibition (result in words)” value in [1] is “irreversibility”. The “CC-v2 (curve classes)” value in assay [3], in assay [5] and in [8] was -1.1 throughout. Also, the results for the Efficacy in [5] and in [8] were -96.78 and -95.546, respectively.
For `COc1ccc(OC(F)(F)F)cc1CN[C@H]1CCCN[C@H]1c1ccccc1` [CP-122721, reference compound], in assay [3], the “CC-v2 (curve classes)” value is on record as 4 and the “potency (IC50), SH-SY5Y cells monolayer” value was “Inactive”. Further, the “potency (IC50), Enzyme-based assay” value in assay [4] is listed as “Inactive”. In assay [5], the “CC-v2 (curve classes)” value is recorded as 4; the Efficacy amounted to 0; the “potency (IC50), Enzyme with microsomes” value is “Inactive”. In assay [8], the “CC-v2 (curve classes)” value is listed as 4; the Efficacy worked out at 0; the “potency (IC50), Enzyme” value is “Inactive”.
For the compound `COc1cc2c(N3CCN(C(=O)Nc4ccc(OC(C)C)cc4)CC3)ncnc2cc1OCCCN1CCCCC1` [Tandutinib, reference compound], the Efficacy in assay [1] is given as -90.305; in assay [5], -26.796; in [8] it was -82.501. In assay [1], the “IR or R” value is “R”. The “CC-v2 (curve classes)” value in assay [3] is reported as -2.1; in assay [5] it was 4; in [8], -2.1.
Take `O=C(CCC1CCN(Cc2ccccc2)CC1)c1ccc2c(c1)NCCCC2.O=C(O)/C=C/C(=O)O` [Zanapezil fumerate, reference compound]: in assay [1], the “IR or R” value is “R”. In addition, the “CC-v2 (curve classes)” value in assay [3], in assay [5] and in assay [8] was -1.1 throughout. For the same compound, the Efficacy in assay [5] is given as -97.158; in [8], -97.056.
For `Nc1c2c(nc3ccccc13)CCCC2O.O=C(O)/C=C\C(=O)O` (stereo not drawn) [Hydroxytacrine maleate, reference compound], in assay [1], the “IR or R” value is “R”. In addition, the “CC-v2 (curve classes)” value is -1.1 in [3], -2.1 in [5] and -1.1 in assay [8]. The Efficacy in [5] is -93.06; in assay [8], -95.079.
On to `CCC1(c2cccc(O)c2)CCCCN(C)C1` (stereo not drawn) [Meptazinol hydrochloride, reference compound], for which the AC50 in [1] is 4.64 µM and 9.25 µM and 3.68 µM and 5.2 µM and 8.25 µM and 5.84 µM and 6.55 µM.
As for `CCCCCCCCCC[N+](C)(CCCCCCCCCC)CCC[Si](OC)(OC)OC.[Cl-]` [Disiquonium chloride], the “CC-v2 (curve classes)” value in assay [3] is listed as 4; in assay [5], 4; in [8] it was -3. The Efficacy in [5] was 0; in [8], -65.382. Moreover, the IC50 in [8] (read-out: IC50) was determined as 79.6 µM.
For `CN1CCCN=C1/C=C/c1cccs1.O=C(O)C(O)C(O)C(=O)O` [Pyrantel tartrate], the results for the “CC-v2 (curve classes)” value in assay [3], in assay [5] and in [8] were -2.1, 4 and -2.4, respectively. The half-maximal inhibitory concentration (IC50) is 30.9 µM and 27.5 µM and 15.5 µM in assay [3] (read-out: IC50); 38.9 µM in [8] (read-out: IC50). Moreover, the Efficacy in assay [5] is on record as 0; in assay [8], -36.527.
With `Nc1c(NC/C=C\COc2cc(CN3CCCCC3)ccn2)c(=O)c1=O` [Pibutidine], the “CC-v2 (curve classes)” value in [3] is given as -2.1; in assay [5] it was 4; in assay [8] it was -2.2. In addition, the IC50 in assay [3] (IC50 (uM)) is 13.5 µM and 15.1 µM; in assay [8] (IC50 (uM)) it was 15.1 µM. For the same compound, the Efficacy in assay [5] is given as 0; in assay [8] it was -32.846.
Consider `Nc1c(/N=N/c2ccc(-c3ccc(/N=N/c4cc(S(=O)(=O)O)c5ccccc5c4N)cc3)cc2)cc(S(=O)(=O)O)c2ccccc12` [C.I. Direct Red 28], for which the half-maximal inhibitory concentration (IC50) was 79.6 µM and 71 µM and 89.4 µM in [3] (IC50 (uM)); 10 µM in assay [8] (IC50 (uM)). The “CC-v2 (curve classes)” value in assay [5] is on record as 4; in assay [8] it was -1.2. Further, the Efficacy in [5] is 13.368; in assay [8] it was -36.697.
For the compound `CNC(=O)Oc1cccc(N=CN(C)C)c1` [Formetanate hydrochloride], in assay [1], the half-maximal activity concentration (AC50) was 63.1 µM and 56.2 µM (2×) and 50.1 µM and 70.7 µM and 44.6 µM and 39.8 µM.
As to `Cc1nc2ccccn2c(=O)c1CCN1CCC(C(=O)c2ccc(F)cc2)CC1` [Pirenperone], the “CC-v2 (curve classes)” value was -2.1 in [3], 4 in assay [5] and -2.4 in assay [8]. For the same compound, the half-maximal inhibitory concentration (IC50) in assay [3] (IC50 (uM)) is 17.4 µM and 24.5 µM; in assay [8] (IC50 (uM)), 38.9 µM. Further, the Efficacy in [5] was 0; in assay [8], -31.06.
Turning to `NC(=O)N=NC(N)=O` [Azodicarbonamide], the IC50 in assay [3] (IC50 (uM)) was 71 µM and 63.5 µM and 71.2 µM and 79.6 µM and 89.6 µM. In [5], the “CC-v2 (curve classes)” value is recorded as 4 and the Efficacy worked out at 0. The IC50 in [8] (IC50 (uM)) was 63.3 µM and 71.2 µM.
`CNP(=O)(OC)Oc1ccc(C(C)(C)C)cc1Cl` (stereo not drawn) [Crufomate]: the “CC-v2 (curve classes)” value is recorded as -2.1 in assay [3], 4 in assay [5] and -2.2 in [8]. Further, the IC50 was 71 µM and 39.9 µM and 63.3 µM in assay [3] (IC50 (uM)); 79.6 µM in [8] (IC50 (uM)). Also, the Efficacy in [5] is on record as -16.11; in assay [8], -70.92.
Take `CCCN(CCc1cccs1)[C@H]1CCc2c(O)cccc2C1` [Rotigotine]: the entries for the “CC-v2 (curve classes)” value in assay [3], in assay [5] and in assay [8] were -2.1, 4 and -2.2, respectively. Besides, the 50% inhibitory concentration (IC50) in assay [3] (IC50 (uM)) was 15.5 µM and 13.8 µM; in assay [8] (IC50 (uM)), 34.7 µM. Further, the Efficacy is recorded as 0 in assay [5] and -40.728 in [8].
